# Measured values as given in patent US9107926B2, “Mutant selectivity and combinations of a phosphoinositide 3-kinase inhibitor compound and chemotherapeutic agents for the treatment of cancer” (Genentech, Inc., priority 2012, dated 2015).
# Tests used:
# EBC-1 = experiment: CellTiter-Glo cell proliferation assay; type: cell-based; details: Homo sapiens, Lung(NSCLC), K-RAS
# T47D = experiment: CellTiter-Glo cell proliferation assay; type: cell-based; details: Homo sapiens, Breast, Kinase-HET.1047H > R, HET.350D > N
# Method: (§2) Cell Culture Medium: RPMI or DMEM high glucose, 10% Fetal Bovine Serum, 2 mM L-Glutamine, P/S. Incubate O/N (overnight) at 37° C., 5% CO2.
# (§3) Drug Addition to Cells, Cell Plate (1:10 dilution): Add 6 μl of media+compound directly to cells (54 μl of media on the cells already). Incubate 3 days at 37° C., 5% CO2 in an incubator that will not be opened often.
# (§4) Day 5—Develop Plates, Thaw Cell Titer Glo Buffer at room temperature: Remove Cell Plates from 37° C. and equilibrate to room temperature for about 30 minutes. Add Cell Titer-Glo® Buffer to Cell Titer-Glo® Substrate (bottle to bottle). Add 30 μl Cell Titer-Glo® Reagent (Promega cat.#G7572) to each well of cells. Place on plate shaker for about 30 minutes. Read luminescence on Analyst HT Plate Reader (half second per well).
# SW1573 = experiment: CellTiter-Glo cell proliferation assay; type: cell-based; details: Homo sapiens, Lung(NSCLC), K-RAS
# OVCAR3 = experiment: CellTiter-Glo cell proliferation assay; type: cell-based; details: Homo sapiens, OVCAR-3, Ovarian, WT
# H23 = experiment: CellTiter-Glo cell proliferation assay; type: cell-based; details: Homo sapiens, NCI-H23, Lung(NSCLC), K-RAS
# H1299 = experiment: CellTiter-Glo cell proliferation assay; type: cell-based; details: Homo sapiens, NCI-H1299, Lung(NSCLC), N-RAS
# H460 = experiment: CellTiter-Glo cell proliferation assay; type: cell-based; details: Homo sapiens, NCI-H460, Lung(NSCLC), KRAS/HEt.545E > K
# HCC1954 = experiment: CellTiter-Glo cell proliferation assay; type: cell-based; details: Homo sapiens, Breast, Kinase-HOM.1047H > L
# Method: as §2, §3, §4
# IGROV1 = experiment: CellTiter-Glo cell proliferation assay; type: cell-based; details: Homo sapiens, IGROV-1, Ovarian, Kinase-HET.1069O > W
# Method: as §2, §3, §4
# CAMA-1 = experiment: CellTiter-Glo cell proliferation assay; type: cell-based; details: Homo sapiens, Breast, PTEN*
# KM12 = experiment: CellTiter-Glo cell proliferation assay; type: cell-based; details: Homo sapiens, Colon, PTEN
# EFM-192A = experiment: CellTiter-Glo cell proliferation assay; type: cell-based; details: Breast, HET.420C > R
# Detroit562 = experiment: CellTiter-Glo cell proliferation assay; type: cell-based; details: Homo sapiens, Detroit 562, Head/Neck, Kinase-H1047R
# A427 = experiment: CellTiter-Glo cell proliferation assay; type: cell-based; details: Homo sapiens, A-427, Lung(NSCLC), K-RAS
# H838 = experiment: CellTiter-Glo cell proliferation assay; type: cell-based; details: Homo sapiens, NCI-H838, Lung(NSCLC), WT
# Method: as §2, §3, §4
# FUOV1 = experiment: CellTiter-Glo cell proliferation assay; type: cell-based; details: Ovarian, WT
# Method: as §2, §3, §4
# Calu-6 = experiment: CellTiter-Glo cell proliferation assay; type: cell-based; details: Homo sapiens, Lung(NSCLC), K-RAS
# HCC-2218 = experiment: CellTiter-Glo cell proliferation assay; type: cell-based; details: Homo sapiens, HCC2218, Breast, WT
# A375 = experiment: CellTiter-Glo cell proliferation assay; type: cell-based; details: Homo sapiens, A-375, Melanoma, B-Raf
# G96 = experiment: CellTiter-Glo cell proliferation assay; type: cell-based; details: Glioma, WT
# H441 = experiment: CellTiter-Glo cell proliferation assay; type: cell-based; details: Homo sapiens, NCI-H441, Lung(NSCLC), K-RAS
# A2058 = experiment: CellTiter-Glo cell proliferation assay; type: cell-based; details: Homo sapiens, Melanoma, PTEN/B-Raf
# Caov3 = experiment: CellTiter-Glo cell proliferation assay; type: cell-based; details: Homo sapiens, Caov-3, Ovarian, WT
# MDST8 = experiment: CellTiter-Glo cell proliferation assay; type: cell-based; details: Colon, PTEN/B-Raf
# SKOV3 = experiment: CellTiter-Glo cell proliferation assay; type: cell-based; details: Homo sapiens, SK-OV-3, Ovarian, Kinase-HET.1047H > R, HET.350D > N
# Method: as §2, §3, §4
# [1] = tested on: NCI-H1975 non-small cell lung cancer (NSCLC) tumor xenografts; experiment: In vivo mouse tumor xenograft efficacy; design: species or system mice; details: PO daily (QD), 24 day treatment period; versus vehicle
# Method: (§1) Xenografts were initiated with cancer cells. […] Volume was calculated using the formula: […]
# [2] = tested on: KPL4 breast tumor xenografts; experiment: In vivo mouse tumor xenograft efficacy; design: species or system mice
# Method: as §1
# [3] = tested on: MCF-7 neo/HER2 breast cancer tumor xenografts; experiment: In vivo mouse tumor xenograft efficacy; design: species or system mice; details: for % TGI@ day 21: QD
# Method: as §1
# [4] = tested on: 22RV1 prostate cancer tumor xenografts; experiment: In vivo mouse tumor xenograft efficacy; design: species or system mice; details: PO daily (QD), 24 days
# Method: as §1
# [5] = tested on: PC3 prostate cancer tumor xenografts; experiment: In vivo mouse tumor xenograft efficacy; design: species or system mice
# Method: as §1
# [6] = tested on: 537 MEL melanoma cancer tumor xenografts; experiment: In vivo mouse tumor xenograft efficacy; design: species or system mice; details: PO daily (QD), 21 days
# Method: as §1
# [7] = tested on: HM-7 colorectal cancer tumor xenografts; experiment: In vivo mouse tumor xenograft efficacy; design: species or system mice
# Method: as §1
# BT549 = experiment: CellTiter-Glo cell proliferation assay; type: cell-based; details: Homo sapiens, BT-549, Breast, PTEN
# SW48 parental cells = experiment: four day CellTiter-Glo viability assay, SW48 isogenic cell line set; details: Homo sapiens, SW48, 96 h, read-out: Viability EC50
# Description: SW48 parental cells and knock-in mutant subclones harboring common PIK3CA hotspot mutations E545K or H1047R were obtained from Horizon Discovery.
# H1568 = experiment: CellTiter-Glo cell proliferation assay; type: cell-based; details: NCI-H1568, Lung(NSCLC), WT
# [8] = tested on: SKOV3 ovarian tumor xenografts; experiment: In vivo mouse tumor xenograft efficacy; details: PO daily (QD), 21 day treatment period
# H1650 = experiment: CellTiter-Glo cell proliferation assay; type: cell-based; details: Homo sapiens, NCI-H1650, Lung(NSCLC), PTEN
# SF539 = experiment: CellTiter-Glo cell proliferation assay; type: cell-based; details: Homo sapiens, SF-539, Glioma, PTEN
smiles,measurement,setting,value
"Cc1nc(-c2cn3c(n2)-c2ccc(-c4cnn(C(C)(C)C(N)=O)c4)cc2OCC3)n(C(C)C)n1 [GDC-0032, 2-(4-(2-(1-isopropyl-3-methyl-1H-1,2,4-triazol-5-yl)-5,6-dihydrobenzo[f]imidazo[1,2-d][1,4]oxazepin-9-yl)-1H-pyrazol-1-yl)-2-methylpropanamide]",EC50,EBC-1,1.66 µM
same,EC50,T47D,0.045 µM
same,EC50,SW1573,0.285 µM
same,EC50,OVCAR3,0.398 µM
same,EC50,H23,2.74 µM
same,EC50,H1299,1.73 µM
same,EC50,H460,0.603 µM
same,EC50,HCC1954,0.102 µM
same,EC50,IGROV1,0.031 µM
same,EC50,CAMA-1,5.62 µM
same,EC50,KM12,4.69 µM
same,EC50,EFM-192A,0.101 µM
same,EC50,Detroit562,0.058 µM
same,EC50,A427,10 µM
same,EC50,H838,3.1 µM
same,EC50,FUOV1,0.062 µM
same,EC50,Calu-6,10 µM
same,EC50,HCC-2218,0.09 µM
same,EC50,A375,10 µM
same,EC50,G96,0.201 µM
same,EC50,H441,10 µM
same,EC50,A2058,9.24 µM
same,EC50,Caov3,4.79 µM
same,EC50,MDST8,4.01 µM
same,EC50,SKOV3,0.076 µM
same,tumor volume change,[1],dose-dependent decrease in tumor volume
same,tumor response,"[2]; 25 mg/kg, end of treatment on day 21, versus vehicle",increased tumor regressions
same,tumor volume change,"[2]; PO daily (QD), 21 days, SCID beige mice",dose dependent decrease in tumor volume
same,tumor response,"[3]; 22.5 mg/kg, after 10 days of treatment, versus vehicle",increased tumor regressions
same,tumor volume change,"[3]; PO daily (QD), 20 days, nude mice",dose dependent decrease in tumor volume
same,% TGI@ day 21,[3]; 5.0 mg/kg,57%
same,% TGI@ day 21,[3]; 10 mg/kg,83%
same,% TGI@ day 21,[3]; 20 mg/kg,83%
same,tumor volume change,[4],dose-dependent decrease in tumor volume
same,anti-tumor efficacy,"[5]; doses <12.5 mg/kg, daily dosing for 14 days",not efficacious
same,anti-tumor response,"[5]; highest dose tested (25 mg/kg), daily, 14 days",tumor stasis
same,tumor volume change,[6],dose-dependent decrease in tumor volume
same,tumor response,"[7]; 25 mg/kg, end of treatment on day 7, versus vehicle",increased tumor regressions
same,tumor volume change,"[7]; PO daily (QD), 7 days",dose dependent decrease in tumor volume
same,EC50,BT549,1.2 µM
same,EC50,SW48 parental cells,0.022 µM
same,EC50,H1568,10 µM
same,tumor volume change,[8],dose-dependent decrease in tumor volume
same,EC50,H1650,1.48 µM
same,EC50,SF539,1.88 µM
